In patent EP3478687B1 (Daewoong Pharmaceutical Co., Ltd., priority 2016, dated 2018):
pIC50: −log10 of the molar value.

Key:
[1] = target: T1, Recombinant purified human JAK3 (Homo sapiens, UniProt P52333); experiment: JAK3 kinase inhibitory activity, ADP-Glo kinase assay (Promega V9441); assay type: biochemical; conditions: for pIC50: ATP 5 uM, 4 ng JAK3 per reaction, 1 hour 30 °C, chemiluminescence; for inhibition at 0.1 µM: @100nM compound
T1 construct: purchased Promega V9441
T1 sequence (P52333 1-1124): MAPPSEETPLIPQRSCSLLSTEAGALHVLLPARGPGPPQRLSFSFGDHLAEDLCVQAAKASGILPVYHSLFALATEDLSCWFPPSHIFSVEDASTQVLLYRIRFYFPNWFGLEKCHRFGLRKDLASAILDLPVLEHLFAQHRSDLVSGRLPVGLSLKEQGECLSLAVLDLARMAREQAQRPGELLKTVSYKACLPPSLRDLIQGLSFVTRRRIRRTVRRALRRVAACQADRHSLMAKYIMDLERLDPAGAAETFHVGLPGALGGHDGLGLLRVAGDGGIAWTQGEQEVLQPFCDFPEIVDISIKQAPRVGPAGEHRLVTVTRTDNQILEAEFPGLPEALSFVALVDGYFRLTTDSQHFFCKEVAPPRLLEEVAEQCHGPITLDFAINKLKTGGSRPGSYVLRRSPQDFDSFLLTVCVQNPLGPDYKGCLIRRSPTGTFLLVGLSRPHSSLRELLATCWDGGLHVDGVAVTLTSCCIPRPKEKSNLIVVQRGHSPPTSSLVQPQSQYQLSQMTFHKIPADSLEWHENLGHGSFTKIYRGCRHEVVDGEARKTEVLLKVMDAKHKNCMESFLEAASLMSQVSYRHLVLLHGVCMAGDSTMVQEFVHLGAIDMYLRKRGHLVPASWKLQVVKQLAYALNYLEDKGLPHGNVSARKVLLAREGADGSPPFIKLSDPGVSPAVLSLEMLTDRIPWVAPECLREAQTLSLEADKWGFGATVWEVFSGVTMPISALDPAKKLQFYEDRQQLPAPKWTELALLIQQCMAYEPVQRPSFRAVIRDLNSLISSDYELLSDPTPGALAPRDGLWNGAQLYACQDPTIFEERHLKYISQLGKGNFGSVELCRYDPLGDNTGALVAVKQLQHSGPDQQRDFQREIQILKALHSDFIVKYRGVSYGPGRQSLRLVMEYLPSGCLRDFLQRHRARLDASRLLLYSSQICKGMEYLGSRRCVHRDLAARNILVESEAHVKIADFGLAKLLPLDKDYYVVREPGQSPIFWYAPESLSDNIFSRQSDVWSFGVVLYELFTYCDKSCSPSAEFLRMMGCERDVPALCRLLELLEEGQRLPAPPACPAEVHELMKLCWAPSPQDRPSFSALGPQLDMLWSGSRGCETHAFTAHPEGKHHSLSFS
Experimental: (§1) JAK3 and BTK kinase inhibitory activities were measured for the compounds prepared in the above Examples through in vitro analysis on the ADP Glow (Glo) platform.
(§2) Specifically, the inhibitory activities of JAK3 and BTK kinase were measured using a JAK3 kinase assay kit (Promega, V9441) and a BTK kinase assay kit (Promega, V9071) which were purchased from Promega. Recombinant purified human JAK3 and BTK were diluted with 1 x kinase reaction buffer (JAK3: 40 mM Tris-Cl, pH 7.5, 20 mM MgCh, 0.1 mg/mL BSA and 50 uM DTT / BTK: 40 mM Tris-Cl, pH 7.5, 20 mM MgCl2, 0.1 mg/mL BSA, 2 mM MnCl2 and 50 uM DTT) and added to a 96 well plate (JAK3: final concentration of 4 ng per reaction/BTK: final concentration of 8 ng per reaction). The compounds were treated so as to be finally a 1% DMSO aqueous solution, and a substrate cocktail containing ATP (JAK3: final concentration of 5 uM / BTK: final concentration of 10 uM) and 0.2 µg/µL of Poly(Glu4, Tyr1) peptide (JAK3 and BTK final concentration) in the total 25 µL reactants was added to a 96-well plate to initiate enzymatic reaction. After incubation (30 °C) for 1 hour, equivalent volume (25 µL per reaction) of ADP Glo was added and incubated (30 °C) for 40 minutes at room temperature. Then, a kinase detection reagent (50 µL per reaction) was added and incubated (30 °C) for 30 minutes at room temperature. The kinase activity was measured by chemiluminescence according to the instructions of ADP Glo kinase assay kit, and the inhibitory activity of the compounds according to the present invention was calculated. For the analysis of the results of each compound, Microsoft Excel was used, and IC50 values were calculated by SigmaPlot software.

[2] = target: T2, Recombinant purified human BTK (Homo sapiens, UniProt Q06187); experiment: BTK kinase inhibitory activity, ADP-Glo kinase assay (Promega V9071); assay type: biochemical; conditions: for pIC50: ATP 10 uM, 8 ng BTK per reaction, 1 hour 30 °C, chemiluminescence; for inhibition at 0.1 µM: @100nM compound
T2 construct: purchased Promega V9071
Experimental: as §1, §2

[3] = printed in the JAK3 IC50 column

T2 sequence (Q06187 whole entry): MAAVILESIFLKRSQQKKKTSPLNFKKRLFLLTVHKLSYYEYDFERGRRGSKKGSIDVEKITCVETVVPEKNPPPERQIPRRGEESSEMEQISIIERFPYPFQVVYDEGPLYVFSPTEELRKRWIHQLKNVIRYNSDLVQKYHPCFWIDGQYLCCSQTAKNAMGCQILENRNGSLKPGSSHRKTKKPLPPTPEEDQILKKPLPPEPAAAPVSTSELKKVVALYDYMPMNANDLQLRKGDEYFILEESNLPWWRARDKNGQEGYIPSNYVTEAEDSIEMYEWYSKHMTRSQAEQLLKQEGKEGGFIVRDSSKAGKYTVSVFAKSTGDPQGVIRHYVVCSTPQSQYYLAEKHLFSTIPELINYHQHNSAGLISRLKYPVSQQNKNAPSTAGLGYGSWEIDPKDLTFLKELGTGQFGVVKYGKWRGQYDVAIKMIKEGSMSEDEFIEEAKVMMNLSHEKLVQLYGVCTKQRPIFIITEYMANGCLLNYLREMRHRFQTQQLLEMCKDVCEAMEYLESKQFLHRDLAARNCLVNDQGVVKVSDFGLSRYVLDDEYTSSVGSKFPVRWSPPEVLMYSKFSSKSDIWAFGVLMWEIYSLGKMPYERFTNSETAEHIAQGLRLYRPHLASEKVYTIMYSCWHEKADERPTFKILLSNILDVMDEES

Row | pIC50 [1] | pIC50 [2] | SMILES | further results
1 | 8.43 | 7.97 | C=CC(=O)N1CCC[C@@H](Nc2nc(Nc3ccc(N4CCN(C)CC4)cc3)nc3[nH]ccc23)C1 [Example 1, (R)-1-(3-(2-(4-(4-methylpiperazin-1-yl)phenylamino)-7H-pyrrolo[2,3-d]pyrimidin-4-ylamino)piperidin-1-yl)prop-2-en-1-one] | –
2 | 8.05 | 7.57 | C=CC(=O)N1CCC[C@@H](Nc2nc(Nc3cccc(NC(=O)N4CCCC4)c3)nc3[nH]ccc23)C1 [Example 2, (R)-N-(3-(4-(1-acryloylpiperidin-3-ylamino)-7H-pyrrolo[2,3-d]pyrimidin-2-ylamino)phenyl)pyrrolidine-1-carboxamide] | –
3 | – | – | C=CC(=O)N1CCC[C@H](Nc2nc(Nc3cccc(NC(=O)N4CCCC4)c3)nc3[nH]ccc23)C1 [Example 3, (S)-N-(3-(4-(1-acryloylpiperidin-3-ylamino)-7H-pyrrolo[2,3-d]pyrimidin-2-ylamino)phenyl)pyrrolidine-1-carboxamide] | inhibition at 0.1 µM [1, 3]: 28.2%; inhibition at 0.1 µM [2]: 30%
4 | 8.16 | 7.57 | C=CC(=O)N1CCC[C@@H](Nc2nc(Nc3ccc(N4CCOCC4)cc3)nc3[nH]ccc23)C1 [Example 4, (R)-1-(3-(2-(4-morpholinophenylamino)-7H-pyrrolo[2,3-d]pyrimidin-4-ylamino)piperidin-1-yl)prop-2-en-1-one] | –
5 | 7.61 | 7.12 | C=CC(=O)N1CCC[C@@H](Nc2nc(Nc3ccc(N4CCCC4)cc3)nc3[nH]ccc23)C1 [Example 5, (R)-1-(3-(2-(4-(pyrrolidin-1-yl)phenylamino)-7H-pyrrolo[2,3-d]pyrimidin-4-ylamino)piperidin-1-yl)prop-2-en-1-one] | –
6 | 8.34 | 8.02 | C=CC(=O)N1CCC[C@@H](Nc2nc(Nc3ccc(-n4nc(C)cc4C)cc3)nc3[nH]ccc23)C1 [Example 6, (R)-1-(3-(2-(4-(3,5-dimethyl-1H-pyrazol-1-yl)phenylamino)-7H-pyrrolo [2,3-d]pyrimidin-4-ylamino)piperidin-1-yl)prop-2-en-1-one] | –
7 | 8.30 | 7.85 | C=CC(=O)N1CCC[C@@H](Nc2nc(Nc3ccc(OCCN(CC)CC)cc3)nc3[nH]ccc23)C1 [Example 7, (R)-1-(3-(2-(4-(2-(diethylamino)ethoxy)phenylamino)-7H-pyrrolo[2,3-d]pyrimidin-4-ylamino)piperidin-1-yl)prop-2-en-1-one] | –
8 | 8.89 | 7.84 | C=CC(=O)N1CCC[C@@H](Nc2nc(Nc3ccc(C(=O)N4CCOCC4)cc3)nc3[nH]ccc23)C1 [Example 8, (R)-1-(3-(2-(4-(morpholine-4-carbonyl)phenylamino)-7H-pyrrolo[2,3-d]pyrimidin-4-ylamino)piperidin-1-yl)prop-2-en-1-one] | –
9 | 8.41 | 7.69 | C=CC(=O)N1CCC[C@@H](Nc2nc(Nc3ccc(N(C)C)cc3)nc3[nH]ccc23)C1 [Example 9, (R)-1-(3-(2-(4-(dimethylamino)phenylamino)-7H-pyrrolo[2,3-d]pyrimidin-4-ylamino)piperidin-1-yl)prop-2-en-1-one] | –
10 | – | – | C=CC(=O)N1CCC[C@@H](Nc2nc(Nc3cccc(-n4nc(C)cc4C)c3)nc3[nH]ccc23)C1 [Example 10, (R)-1-(3-(2-(3-(3,5-dimethyl-1H-pyrazol-1-yl)phenylamino)-7H-pyrrolo [2,3-d]pyrimidin-4-ylamino)piperidin-1-yl)prop-2-en-1-one] | inhibition at 0.1 µM [1, 3]: 32.8%; inhibition at 0.1 µM [2]: 23.7%
11 | – | – | C=CC(=O)N1CCC[C@H](Nc2nc(Nc3ccc(N4CCN(C)CC4)cc3)nc3[nH]ccc23)C1 [Example 11, (S)-1-(3-(2-(4-(4-methylpiperazin-1-yl)phenylamino)-7H-pyrrolo[2,3-d]pyrimidin-4-ylamino)piperidin-1-yl)prop-2-en-1-one] | inhibition at 0.1 µM [1, 3]: 36%; inhibition at 0.1 µM [2]: 26.5%
12 | 8.89 | 7.97 | C=CC(=O)N1CCC[C@@H](Nc2nc(Nc3ccc4ncsc4c3)nc3[nH]ccc23)C1 [Example 12, (R)-1-(3-(2-(benzo[d]thiazol-6-ylamino)-7H-pyrrolo[2,3-d]pyrimidin-4-ylamino)piperidin-1-yl)prop-2-en-1-one] | –
13 | – | – | C=CC(=O)N1CCC[C@@H](Nc2nc(Nc3ccc(Oc4ccccc4)cc3)nc3[nH]ccc23)C1 [Example 13, (R)-1-(3-(2-(4-phenoxyphenylamino)-7H-pyrrolo[2,3-d]pyrimidin-4-ylamino)piperidin-1-yl)prop-2-en-1-one] | inhibition at 1 µM ([1]; @1uM compound, printed in the JAK3 IC50 column): 0.4%; inhibition at 1 µM ([2]; @1uM compound): 1%
14 | 8.96 | 7.72 | C=CC(=O)N1CCC[C@@H](Nc2nc(Nc3cnn(C)c3)nc3[nH]ccc23)C1 [Example 14, (R)-1-(3-(2-(1-methyl-1H-pyrazol-4-ylamino)-7H-pyrrolo[2,3-d]pyrimidin-4-ylamino)piperidin-1-yl)prop-2-en-1-one] | –
15 | 9.52 | 8.14 | C=CC(=O)N1CCC[C@@H](Nc2nc(Nc3cnn(CC(F)F)c3)nc3[nH]ccc23)C1 [Example 15, (R)-1-(3-(2-(1-(2,2-difluoroethyl)-1H-pyrazol-4-ylamino)-7H-pyrrolo[2,3-d]pyrimidin-4-ylamino)piperidin-1-yl)prop-2-en-1-one] | –
16 | 9.40 | 8.00 | C=CC(=O)N1CCC[C@@H](Nc2nc(Nc3cnn(C(F)F)c3)nc3[nH]ccc23)C1 [Example 16, (R)-1-(3-(2-(1-(difluoromethyl)-1H-pyrazol-4-ylamino)-7H-pyrrolo[2,3-d]pyrimidin-4-ylamino)piperidin-1-yl)prop-2-en-1-one] | –
17 | 9.22 | 7.93 | C=CC(=O)N1CCC[C@@H](Nc2nc(Nc3cnn(CCOC)c3)nc3[nH]ccc23)C1 [Example 17, (R)-1-(3-(2-(1-(2-methoayethyl)-1H-pyrazol-4-ylamino)-7H-pyrrolo[2,3-d]pyrimidin-4-ylamino)piperidin-1-yl)prop-2-en-1-one] | –
18 | 9.52 | 8.06 | C=CC(=O)N1CCC[C@@H](Nc2nc(Nc3cnn(CCN4CCOCC4)c3)nc3[nH]ccc23)C1 [Example 18, (R)-1-(3-(2-(1-(2-morpholinoethyl)-1H-pyrazol-4-ylamino)-7H-pyrrolo[2,3-d]pyrimidin-4-ylamino)piperidin-1-yl)prop-2-en-1-one] | –
19 | 9.30 | 8.06 | C=CC(=O)N1CCC[C@@H](Nc2nc(Nc3cnn(CCN(CC)CC)c3)nc3[nH]ccc23)C1 [Example 19, (R)-1-(3-(2-(1-(2-(diethylamino)ethyl)-1H-pyrazol-4-ylamino)-7H-pyrrolo[2,3-d]pyrimidin-4-ylamino)piperidin-1-yl)prop-2-en-1-one] | –
20 | 9.15 | 8.02 | C=CC(=O)N1CCC[C@@H](Nc2nc(Nc3cnn(Cc4cccc(OC)c4)c3)nc3[nH]ccc23)C1 [Example 20, (R)-1-(3-(2-(1-(3-methoxybenzyl)-1H-pyrazol-4-ylamino)-7H-pyrrolo[2,3-d]pyrimidin-4-ylamino)piperidin-1-yl)prop-2-en-1-one] | –
